In patent publication US20190240225A1, “COMBINATION OF A BCL-2 INHIBITOR AND A MCL-1 INHIBITOR, USES AND PHARMACEUTICAL COMPOSITIONS THEREOF” (LES LABORATOIRES SERVIER, priority 2016, published 2019):
Like-named read-outs stand apart in the source and are kept apart here.

Columns and labels:
J.RT3 T3.5 = assay: CellTiterGlo viability, T-ALL cell line; format: cell-based; settings: single agent, 48 h
Description: (§1) In addition, all media contained penicillin (100 IU/ml), streptomycin (100 μg/ml) and L-glutamine (2 mM). Cell lines were cultured at 37° C. in a humidified atmosphere containing 5% CO2 and expanded in T-150 flasks. In all cases cells were thawed from frozen stocks, expanded through ≥1 passage using appropriate dilutions, counted and assessed for viability using a CASY cell counter prior to plating 150 ul/well at the densities indicated in Table 9 into 96-well plates. All cell lines were determined to be free of mycoplasma contamination in-house.
(§2) Stock solutions of compounds were prepared at a concentration of 5 mM in DMSO and stored at −20° C. In order to analyse the activity of the compounds as single agents, cells were seeded and treated with nine 2-fold serial dilutions of each compound dispensed individually directly into the cell assay plates. […] All the conditions were tested in triplicates. Luminescence was quantified on a multipurpose plate reader. Single agent IC50s were calculated using standard four-parametric curve fitting. IC50 is defined as the compound concentration at which the CTG signal is reduced to 50% of that measured for the vehicle (DMSO) control.
(§3) In order to analyse the activity of the compounds in combination, cells were seeded and treated with seven or eight 3.16-fold serial dilutions of each compound dispensed, either individually or in all possible permutations in a checkerboard fashion, directly into the cell assay plates as indicated in FIG. 1. […] For B-ALL cell lines, two independent experiments, each one performed in duplicates, were performed. For T-ALL cell lines, one experiment performed in triplicate was performed. Luminescence was quantified on a multipurpose plate reader.
(§4) Potential synergistic interactions between compound combinations were assessed using the Excess Inhibition 2D matrix according to the Loewe additivity model and are reported as Synergy Score (Lehar et al, Nat Biotechnol. 2009 July; 27(7): 659-666). All calculations were performed using Chalice TM Bioinformatics Software available in Horizon website. The doubling time indicated in Table 9 is the mean of the doubling time obtained in the different passages (in T-150 flasks) performed from the thawing of the cells to their seeding in the 96-well plates.

Loucy = assay: CellTiterGlo viability, T-ALL cell line; format: cell-based; settings: single agent, 48 h
Description: as §1, §2, §3, §4

DB = assay: CellTiterGlo viability, DLBCL cell line; format: cell-based; settings: for Max Inh / IC50: DB, single agent, 2 days; for IC50: read-out: Abs IC50; for growth inhibition: DB cells, second lowest concentration tested of each compound (FIG. 4A)
Description: In addition, all media contained penicillin (100 IU/ml), streptomycin (100 μg/ml) and L-glutamine (2 mM). Unless otherwise mentioned, culture media and supplements were from Amimed/Bioconcept (Allschwil, Switzerland).
Cell lines were cultured at 37° C. in a humidified atmosphere containing 5% CO2 and expanded in T-75 flasks. In all cases cells were thawed from frozen stocks, expanded through ≥1 passage using appropriate dilutions, counted and assessed for viability using a CASY cell counter (Omni Life Science, Bremen, Germany) prior to plating 25 ul/well at the densities indicated in Table 1 into 384-well plates (Corning). All cell lines were determined to be free of mycoplasma contamination by PCR assay performed at Idexx Radii (Columbia, Mo., USA) and misidentification ruled out by assessment of a panel of 48 Small Nucleotide Polymorphisms (SNPs) at Asuragen (Austin, Tex., USA) or in-house.
Stock solutions of compounds were prepared at a concentration of 10 mM in DMSO (Sigma) and stored at −20° C. Where necessary to afford a full dose-response curve, the stock solutions were pre-diluted in DMSO to 1′000-fold the desired start concentration (see Table 2). On the day after cell seeding, eight 2.5-fold serial dilutions of each compound were dispensed, either individually or in all possible permutations in a checkerboard fashion, directly into the cell assay plates using a non-contact 300D Digital Dispenser (ILCAN, Mannedorf, Switzerland) as outlined in FIG. 4. The final concentration of DMSO was 0.2% in all wells.
Effects of the single agents as well as their checkerboard combinations on cell viability were assessed after 2 days of incubation at 37° C./5% CO2 by quantification of cellular ATP levels using CellTiterGlo (Promega, Madison, Wis., USA) at 25 μL reagent/well and n=2 replicate plates per condition. Luminescence was quantified on a M1000 multipurpose platereader (ILCAN, Mannedorf, Switzerland). The number/viability of cells at time of compound addition was likewise assessed and used to assess the degree of the population doubling time of a particular cell line.
Single agent IC50s were calculated using standard four-parametric curve fitting. […] All calculations were performed using the Combination Analysis Module in-house software. IC50 are defined as the compound concentration at which the CTG signal is reduced to 50% of that measured for the vehicle (DMSO) control.

OCI-AML3 = assay: CellTiterGlo viability, AML cell line; format: cell-based; settings: for growth inhibition: third lowest concentration tested
Description: In addition, all media contained penicillin (100 IU/ml), streptomycin (100 μg/ml) and L-glutamine (2 mM).
as §1, with “Cell” for “In addition, all media contained penicillin (100 IU/ml), streptomycin (100 μg/ml) and L-glutamine (2 mM). Cell”, “Table 1” for “Table 9”
Stock solutions of compounds were prepared at a concentration of 5 mM in DMSO and stored at −20° C.
In order to analyse the activity of the compounds as single agents, cells were seeded and treated with nine 2-fold serial dilutions of each compound dispensed individually directly into the cell assay plates. Effects of the compounds on cell viability were assessed after 3 days of incubation at 37° C./5% CO2 by quantification of cellular ATP levels using CellTiterGlo at 75 μL reagent/well. All the experiments were performed in triplicates. Luminescence was quantified on a multipurpose plate reader. Single agent IC50s were calculated using standard four-parametric curve fitting. IC50 is defined as the compound concentration at which the CTG signal is reduced to 50% of that measured for the vehicle (DMSO) control.
In order to analyse the activity of the compounds in combination, cells were seeded and treated with seven or eight 3.16-fold serial dilutions of each compound dispensed, either individually or in all possible permutations in a checkerboard fashion, directly into the cell assay plates as indicated in FIG. 9. Effects of the single agents as well as their checkerboard combinations on cell viability were assessed after 3 days of incubation at 37° C./5% CO2 by quantification of cellular ATP levels using CellTiterGlo at 75 μL reagent/well. Two independent experiments, each one performed in duplicates, were performed. Luminescence was quantified on a multipurpose plate reader.
Potential synergistic interactions between compound combinations were assessed using the Excess Inhibition 2D matrix according to the Loewe additivity model and are reported as Synergy Score (Lehar et al, Nat Biotechnol. 2009 July; 27(7): 659-666). All calculations were performed using Clalice™ Bioinformatics Software.

Toledo xenograft = assay: DLBCL Toledo xenograft model in mice; format: in vivo; settings: SCID/beige mice; Compound 1, HCl 100 mg/kg QW po; Compound 3 25 mg/kg QW iv
Description: The xenograft model was established by direct subcutaneous (sc) implantation of 3 million Toledo cell suspension with 50% matrigel into the subcutaneous area of SCID/beige mice. All procedures were carried out using aseptic technique. The mice were anesthetized during the entire period of the procedure.
In general, a total of 6 animals per group were enrolled in efficacy study. For single-agent and combination studies, animals were dosed via oral gavage (po) for Compound 1 and intravenously (iv) via tail vein for Compound 3. Compound 1, HCl was formulated as solution in PEG300/EtOH/water (40/10/50), and Compound 3 was placed in solution. When tumors reached approximately 220 mm^3 at day 26 post cell implantation, tumour-bearing mice were randomized into treatment groups.
Animals were weighed at dosing day(s) and dose was body weight adjusted, dosing volume was 10 ml/kg. Tumour dimensions and body weights were collected at the time of randomization and twice weekly thereafter for the study duration. The following data was provided after each day of data collection: incidence of mortality, individual and group average body weights, and individual and group average tumour volume.
For the study in Toledo model, treatments were initiated on day 26 following cell implantation, when the average tumour volume was ˜218 to 228 mm^3.
The % change in body weight was calculated as (BWcurrent−BWinitial)/(BWinitial)×100. Data is presented as percent body weight change from the day of treatment initiation.
Percent treatment/control (T/C) values were calculated using the following formula:
% Regression=100×ΔT/T0 if ΔT<0
where: T=mean tumour volume of the drug-treated group on the final day of the study; ΔT=mean tumour volume of the drug-treated group on the final day of the study—mean tumour volume of the drug-treated group on initial day of dosing; T0=mean tumour volume of the drug-treated group on the day of cohort; C=mean tumour volume of the control group on the final day of the study; and ΔC=mean tumour volume of the control group on the final day of the study—mean tumour volume of the control group on initial day of dosing.
All data were expressed as mean±standard error of the mean (SEM). Delta tumour volume and percent body weight changes were used for statistical analysis. Between group comparisons were carried out using the One way ANOVA followed by a post hoc Tukey test. For all statistical evaluations, the level of significance was set at p<0.05. Significance compared to the vehicle control group is reported unless otherwise stated.

[1] = Compound 3 / Compound 1 experiment (FIG. 9A)

## Cl.O=C(c1cc(-c2cc3c(cc2C(=O)N2Cc4ccccc4C[C@H]2CN2CCOCC2)OCO3)n2c1CCCC2)N(c1ccccc1)c1ccc(O)cc1 [Compound 1, HCl, N-(4-hydroxyphenyl)-3-{6-[((3S)-3-(4-morpholinylmethyl)-3,4-dihydro-2(1H)-isoquinolinyl)carbonyl]-1,3-benzodioxol-5-yl}-N-phenyl-5,6,7,8-tetrahydro-1-indolizine carboxamide hydrochloride]
J.RT3 T3.5; Homo sapiens
  IC50: 10000 nM
Loucy
  IC50: 231 nM
DB
  Max Inh: 95.7%
DB; Homo sapiens, 48 h
  IC50: 2760 nM
OCI-AML3; Homo sapiens, OCI-AML-3, 72 h, single agent, 3 days
  IC50: 8090 nM
Toledo xenograft
  T/C % at day 42: 37%
  mean body weight change: 1.081%

## O=C(c1cc(-c2cc3c(cc2C(=O)N2Cc4ccccc4C[C@H]2CN2CCOCC2)OCO3)n2c1CCCC2)N(c1ccccc1)c1ccc(O)cc1 [Compound 1, N-(4-hydroxyphenyl)-3-{6-[((3S)-3-(4-morpholinylmethyl)-3,4-dihydro-2(1H)-isoquinolinyl)carbonyl]-1,3-benzodioxol-5-yl}-N-phenyl-5,6,7,8-tetrahydro-1-indolizine carboxamide]
DB
  growth inhibition: 2%
OCI-AML3; [1]
  growth inhibition: 1%
Toledo xenograft
  T/C % at day 42: 37%

## COc1ccccc1-c1nccc(COc2ccccc2C[C@@H](Oc2ncnc3sc(-c4ccc(F)cc4)c(-c4ccc(OCCN5CCN(C)CC5)c(Cl)c4C)c23)C(=O)O)n1 [Compound 3, (2R)-2-{[(5Sa)-5-{3-chloro-2-methyl-4-[2-(4-methylpiperazin-1-yl)ethoxy]phenyl}-6-(4-fluorophenyl)thieno[2,3-d]pyrimidin-4-yl]oxy}-3-(2-{[2-(2-methoxyphenyl)pyrimidin-4-yl]methoxy}phenyl)propanoic acid]
J.RT3 T3.5
  IC50: 63 nM
Loucy
  IC50: 64 nM
DB
  growth inhibition: 1%
  Max Inh: 99.2%
  IC50: 12.9 nM
OCI-AML3; single agent, 3 days
  IC50: 146 nM
OCI-AML3; single agent, combination (c) experiment, 3 days
  Mean of Max Inh: 100.0%
OCI-AML3; [1]
  growth inhibition: 5%
OCI-AML3; Compound 4, HCl / Compound 3 experiment
  growth inhibition: 40%
OCI-AML3; MCL1 inhibitor / ABT-199 experiment (FIG. 13)
  growth inhibition: 26%
Toledo xenograft
  T/C % at day 42: 102%
  mean body weight change: 2.3%
